The results in this text go back to ChEMBL document CHEMBL3580592, “Combretastatin A-4 inspired novel 2-aryl-3-arylamino-imidazo-pyridines/pyrazines as tubulin polymerization inhibitors, antimitotic and anticancer agents” (Medchemcomm, 2014).

The nature of data set [1]: Cytotoxicity against African green monkey Vero cells assessed as cell death by MTT assay. Type of data set: cell-based. To be noted: chlorocebus sabaeus, read-out: LC50 (the source's name). On the technique in general: Formazan colour is commonly taken as a measure of viable cells.
Data set [2] concerns SiHa. Kind of data set: Cytotoxicity against human SiHa cells assessed as cell death after 24 hrs by MTT assay. The class given is functional. Conditions: read-out: LC50 (the source's name).
For data set [3], the system named is HEK-293T. Kind of data set: Cytotoxicity against human HEK293T cells assessed as inhibition of colony formation at LC50 after 24 hrs by crystal violet staining based clonogenic cell survival assay. Type of data set: functional.
The test system of data set [4] is HEK-293T. The experiment in a line: Induction of apoptosis in HEK293T cells assessed as activation of caspase 3 at LC50 after 24 hrs by immunocytochemical analysis. The class given is functional, cell-based. Conditions: Homo sapiens.
Data set [5] concerns HeLa. Kind of data set: Cytotoxicity against human HeLa cells assessed as cell death after 24 hrs by MTT assay. To be noted: read-out: LC50 (the source's name). Type of data set: functional.
In data set [6] the test system is HEK-293T. The experiment in a line: Induction of apoptosis in HEK293T cells assessed as chromatin condensation and nuclear fragmentation at LC50 after 24 hrs by DAPI staining-based fluorescent microscopy. The class given is functional, cell-based. To be noted: Homo sapiens.
Data set [7] deals with HEK-293T. The experiment in a line: Induction of DNA damage in HEK293T cells assessed as increase in comet length at LC50 after 24 hrs by Comet assay relative to untreated control. Conditions: Homo sapiens. Type of data set: functional, cell-based.
The test system of data set [8] is HEK-293T. The experiment in a line: Induction of apoptosis in HEK293T cells assessed as reduction in PARP level at LC50 after 24 hrs by Western blot analysis. The class given is functional, cell-based. To be noted: Homo sapiens. In general terms: Immunoblotting shows a protein as a band on a membrane.
Data set [9] relates to MCF7. Kind of data set: Cytotoxicity against human MCF7 cells assessed as cell death after 24 hrs by MTT assay. Type of data set: functional. Conditions: MCF7, 24 h, read-out: LC50 (the source's name).
For data set [10], the target named is Tubulin. Kind of data set: Inhibition of tubulin polymerization in HEK293T cell lysate after 15 mins by spectrophotometry. Type of data set: cell-free, Homo sapiens. To be noted: hek-293t.
Data set [11] relates to SiHa. Kind of data set: Cytotoxicity against human SiHa cells assessed as cell death after 48 hrs by MTT assay. Type of data set: functional. Conditions: read-out: LC50 (the source's name).
Data set [12] relates to HEK-293T. Kind of data set: Induction of apoptosis in HEK293T cells assessed as apoptotic nuclei at LC50 after 24 hrs by DAPI staining-based fluorescent microscopy. The class given is functional, cell-based. Conditions: Homo sapiens.
For data set [13], the system named is MCF7. Kind of data set: Cytotoxicity against human MCF7 cells assessed as cell death after 48 hrs by MTT assay. To be noted: MCF7, 48 h, read-out: LC50 (the source's name). Type of data set: functional.
Data set [14] concerns HEK-293T. The experiment in a line: Cytotoxicity against human HEK293T cells assessed as cell death after 24 hrs by MTT assay. To be noted: read-out: LC50 (the source's name). The class given is functional.
For data set [15], the system named is HeLa. Kind of data set: Cytotoxicity against human HeLa cells assessed as cell death after 48 hrs by MTT assay. The class given is functional. To be noted: read-out: LC50 (the source's name).
Data set [16] deals with Tubulin (Homo sapiens) (UniProt P68371+Q9H4B7+P0DPH7+P68366+Q13509+Q71U36+P04350+Q3ZCM7+P07437+P68363+Q9BQE3+Q6PEY2+Q13885+Q9BVA1+Q9BUF5). Kind of data set: Inhibition of tubulin assembly in HEK293T cells assessed as formation of abnormal mitotic spindles at LC50 after 24 hrs by immunofluorescence based confocal microscopy. Type of data set: cell-based. Conditions: HEK-293T.

Data set [17] deals with HEK-293T. The experiment in a line: Cytotoxicity against human HEK293T cells assessed as cell death after 48 hrs by MTT assay. The class given is functional. To be noted: read-out: LC50 (the source's name).
The test system of data set [18] is HEK-293T. The experiment in a line: Induction of chromosomal damage in HEK293T cells assessed as micronuclei formation at LC50 after 24 hrs by cytokinesis-block micronucleus assay relative to untreated control. Conditions: Homo sapiens. Type of data set: functional, cell-based.
The subject of data set [19] is HEK-293T. The experiment in a line: Induction of cell cycle arrest in HEK293T cells assessed as cells accumulation at G2/M phase at LC50 after 24 hrs by PI staining-based FACS scan flow cytometry (reference value: 22.2 +/- 1.5%). Type of data set: functional, Homo sapiens. (In flow cytometry, cells or beads pass a laser one at a time.)
For data set [20], the system named is HEK-293T. The experiment in a line: Induction of apoptosis in HEK293T cells assessed as increase in p53 expression at LC50 after 24 hrs by Western blot analysis. Type of data set: functional, cell-based. Conditions: Homo sapiens.
Data set [21] deals with HEK-293T. The experiment in a line: Cytotoxicity against human HEK293T cells assessed as cell death by MTT assay. Type of data set: functional. Conditions: read-out: LC50 (the source's name).
Data set [22] relates to HEK293. Kind of data set: Inhibition of anchorage-dependent HEK293T cell migration at LC50 after 6 to 24 hrs by wound healing assay. Type of data set: functional, cell-based. Conditions: Homo sapiens.

Broadly, the IC50 is the point on the concentration scale where inhibition reaches its midpoint.

The source made the active and inactive calls. No cut-off for these calls is given here.

Take `COc1ccc(Nc2c(-c3cc(OC)c(OC)c(OC)c3)nc3ccccn23)cc1`: the CC50 is 65 µM in [1]; 5 µM in data set [2]; 9 µM in [5]; 8 µM in data set [9]; 2 µM in [11]; 5 µM in data set [13]. The CC50 in [14] stood at 10 µM; in [15] it was 5 µM; in data set [17] it was 5 µM; in data set [21] it was 10 µM. Also, the inhibition entry in data set [3], in data set [16] and in data set [22] was “Active” throughout. Further, the outcome in data set [4], in data set [6], in [7], in data set [8], in data set [12] and in [18] was Active. The outcome in [20] was Active. The same compound returned an IC50 in [10] of 14 µM. The Activity in data set [19] is 40.7%.

For the compound `COc1ccc(Nc2c(-c3ccc(F)cc3)nc3cnccn23)cc1`, the CC50 was determined as 72 µM in data set [1] and 56 µM in data set [21]. In addition, the IC50 in data set [10] was determined as 44 µM.

For the compound `COc1ccc(-c2nc3cnccn3c2Nc2cc(OC)c(OC)c(OC)c2)cc1`, the CC50 came out at 75 µM in data set [1] and 54 µM in data set [21]. Further, in data set [10], half-maximal inhibition (IC50) was put at 40 µM.

As to `COc1ccc(Nc2c(-c3ccc(OC)c(O)c3)nc3ncccn23)cc1`, the CC50 was determined as 56 µM in [1] and 54 µM in data set [21]. Also, in [10], the IC50 came to 54 µM.

`COc1ccc(/C=C\c2cc(OC)c(OC)c(OC)c2)cc1O` [COMBRETASTATIN A4]: the CC50 in data set [1] was 11 µM; in data set [2] it was 0.6 µM; in [5] it was 6 µM; in data set [9], 7 µM; in data set [11] it was 0.2 µM; in data set [13] it was 2 µM. The CC50 in [14] amounted to 8 µM; in data set [15] it was 0.8 µM; in data set [17], 0.2 µM; in data set [21], 8 µM. For the same compound, the outcome in data set [4], in data set [6], in data set [7], in data set [8], in data set [12] and in data set [18] was Active. Also, the outcome in [20] was Active.

As to `COc1ccc(-c2nc3ccccn3c2Nc2cc(OC)c(OC)c(OC)c2)cc1O`, the CC50 in data set [1] was 50 µM; in data set [2] it was 5 µM; in data set [5], 15 µM; in [9], 20 µM; in data set [11], 2 µM; in [13] it was 12 µM. Besides, the CC50 was 10 µM in [14], 10 µM in data set [15], 5 µM in data set [17] and 10 µM in [21]. The inhibition result in data set [3], in data set [16] and in data set [22] was “Active” in each case. Also, the outcome in data set [4], in [6], in data set [7], in data set [8], in [12] and in [18] was Active. The outcome in data set [20] was Active. In data set [10], this compound gave an IC50 of 12 µM. The Activity in data set [19] stood at 33.6%.

Turning to `COc1cc(-c2nc3cnccn3c2Nc2cc(OC)c(OC)c(OC)c2)cc(OC)c1O`, the CC50 in data set [1] stood at 62 µM; in [21] it was 34 µM. The same compound registered an IC50 in data set [10] of 34 µM.

Consider `COc1ccc(Nc2c(-c3cccc(B(O)O)c3)nc3ccccn23)cc1`, for which the CC50 in data set [1] was 58 µM; in [21], 48 µM. For the same compound, in data set [10], the IC50 was determined as 48 µM.

With `COc1cc(Nc2c(-c3ccc(Cl)cc3)nc3cnccn23)cc(OC)c1OC`, the CC50 was 32 µM in data set [1] and 25 µM in [21]. This compound also yielded an IC50 in [10] of 32 µM.

`COc1ccc(-c2nc3sccn3c2Nc2cc(OC)c(OC)c(OC)c2)cc1O`: the CC50 in data set [1] came out at 62 µM; in data set [21], 36 µM. Moreover, half-maximal inhibition in data set [10] (IC50) was put at 36 µM.

As for `COc1ccc(Nc2c(-c3cccc(O)c3)nc3ccccn23)cc1`, the CC50 in [1] is 74 µM; in data set [21], 47 µM. For the same compound, the IC50 in data set [10] came out at 42 µM.

With `COc1ccc(Nc2c(-c3ccc(OC)c(O)c3)nc3cnccn23)cc1`, the CC50 in [1] was found to be 62 µM; in [21], 38 µM. Moreover, the midpoint of inhibition in data set [10], the IC50, lay at 38 µM.

For the compound `COc1ccc(Nc2c(-c3ccc(Cl)cc3)nc3cnccn23)cc1`, the results for the CC50 in [1] and in data set [21] were 45 µM and 34 µM, respectively. This compound had an IC50 in data set [10] of 46 µM.

As to `COc1ccc(Nc2c(-c3ccc(OC)cc3)nc3ccccn23)cc1`, the CC50 in [1] was 54 µM; in [21], 34 µM. The compound also displayed an IC50 in [10] of 34 µM.

Regarding `COc1cc(Nc2c(C3C=Nc4ccccc43)nc3cnccn23)cc(OC)c1OC` (stereo not drawn), the CC50 in [1] stood at 70 µM; in [2], 7 µM; in data set [5], 17 µM; in [9] it was 18 µM; in [11] it was 3 µM; in data set [13] it was 6 µM. Also, the CC50 came to 12 µM in data set [14], 9 µM in data set [15], 3 µM in [17] and 12 µM in data set [21]. Also, the inhibition result in [3], in [16] and in data set [22] was “Active” throughout. The outcome in [4], in data set [6], in [7], in data set [8], in [12] and in [18] was Active. Moreover, the outcome in [20] was Active. In data set [10], the midpoint of inhibition, the IC50, lay at 11 µM. In addition, the Activity in data set [19] was 87.4%.

As to `COc1ccc(-c2nc3cc(C)ccn3c2Nc2cc(OC)c(OC)c(OC)c2)cc1O`, the CC50 in data set [1] is 48 µM; in [2], 4 µM; in [5], 15 µM; in data set [9], 15 µM; in [11], 1.5 µM; in [13] it was 10 µM. Besides, the CC50 in data set [14] was 8 µM; in [15], 7 µM; in data set [17], 3 µM; in [21], 8 µM. Further, the inhibition entry in [3], in [16] and in data set [22] was “Active” each time. Also, the result in [4], in data set [6], in data set [7], in [8], in data set [12] and in [18] was Active. The result in [20] was Active. In addition, half-maximal inhibition in data set [10] (IC50) required 10 µM. In addition, in data set [19], the Activity is 36.6%.

For `COc1ccc(-c2nc3sc4ccccc4n3c2Nc2cc(OC)c(OC)c(OC)c2)cc1O`, the CC50 in [1] came to 26 µM; in data set [21] it was 22 µM. The compound further yielded an IC50 in data set [10] of 20 µM.

Turning to `COc1ccc(-c2nc3cccc(C)n3c2Nc2cc(OC)c(OC)c(OC)c2)cc1O`, the CC50 in data set [1] stood at 74 µM; in data set [21] it was 63 µM. For the same compound, inhibition in [10] was half-maximal at 38 µM (IC50).

For `COc1ccc(-c2nc3cnccn3c2Nc2cc(OC)c(OC)c(OC)c2)cc1O`, the CC50 is 50 µM in [1] and 38 µM in data set [21]. This compound also came in with an IC50 in data set [10] of 38 µM.

As for `COc1cc(Nc2c(-c3cccc(O)c3)nc3cnccn23)cc(OC)c1OC`, the CC50 amounted to 63 µM in data set [1] and 42 µM in [21]. Further, the IC50 in data set [10] was 39 µM.

Consider `COc1cc(Nc2c(-c3ccc(F)cc3)nc3cnccn23)cc(OC)c1OC`, for which the CC50 in [1] turned out to be 48 µM; in [21], 36 µM. The compound also showed an IC50 in data set [10] of 36 µM.
